{"source": "paper PMC12084297", "about": "“Cytoplasmic connexin43-microtubule interactions promote glioblastoma stem-like cell maintenance and tumorigenicity” (Cell Death & Disease, 2025)", "key": {"VTC-034 GSCs": {"test_system": "VTC-034 GSCs", "assay": "Limiting dilution analysis (ELDA), VTC-034 GSCs", "assay_type": "cell-based, human", "settings": "VTC-034, 100 μM every other day, 2 weeks; compared to JM2-scrambled or control", "protocol": "GSCs and PDX GBM22 cells were plated as single cell suspension in low-attachment 96-well plates (GSCs: 100–500 cells per well; GBM22 cells: 500–2000 cells per well), using methods similar to those reported previously. Cells were then treated with peptides every other day. 2 weeks later, gliospheres were observed using phase contrast microscopy on a Revolve microscope (Echo Laboratories). The number of gliospheres was then determined, while the gliosphere size was assessed by diameter measurement. To evaluate stem cell frequency in GSCs, gliosphere formation assay was performed with limiting cell dilutions with cells plated at varying densities in low-attachment 96-well plates. Cells were treated with peptides every other day, and after 2 weeks, gliosphere-positive wells were observed and scored using phase contrast microscopy on a Revolve microscope. The stem cell frequency was analyzed using the online data analysis program ELDA (Extreme Limiting Dilution Analysis).\nAll quantification was performed on experiments repeated at least three times. Statistical analysis was conducted with GraphPad Prism (GraphPad Software). Data were analyzed for significance using Student’s t test, one-way ANOVA with Tukey’s multiple comparisons test, and presented as mean ± SD. […] Statistical significance between experimental groups was determined using chi-square (χ²) tests within the ELDA framework. […]"}, "Notch1": {"test_system": "Notch1", "assay": "Notch1 protein expression, immunoblot, VTC-001 GSCs", "assay_type": "cell-based, human", "settings": "50 μM, 24 h", "protocol": "Cells were lysed in RIPA buffer (0.1% sodium dodecyl sulphate, 50 mM Tris pH 7.4, 150 mM NaCl, 1 mM EDTA, 1% Triton X-100, 1% deoxycholic acid, 200 μM Na3VO4, and 1 mM NaF) supplemented with Halt^TM Protease and Phosphatase Inhibitor Cocktail (Thermo Fisher). Lysates were sonicated prior to centrifugation at 4 °C for 20 min at 10,000 x g. Protein concentration was quantified using the DC protein assay (Bio-Rad Laboratories) and a standard curve obtained with increasing concentrations of Bovine Serum Albumin (BSA; Fisher Scientific). Protein samples were normalized to 20 μg total protein per lane and resolved by SDS-PAGE electrophoresis. 4X Bolt LDS sample buffer supplemented with 400 mM DTT (final concentration 1X Bolt LDS with 100 mM DTT) was added to samples before heating at 70 °C for 10 min. SDS-PAGE was run using NuPAGE Bis-Tris 4%–12% gradient gels (Thermo Fisher) with MES or MOPS running buffer according to manufacturer’s instructions. Spectra™ Multicolor Protein Ladder (Thermo Fisher) or Precision Plus Protein™ Kaleidoscope™ Prestained Protein Standards (Bio-Rad Laboratories) were included as protein ladders on the same gels. […] Membranes were imaged on a ChemiDoc™ imaging system, and analyzed with Image Lab software (Bio-Rad Laboratories). […]"}}}
{"sequence": "VFFKGVKDRVKGRSD [JM2]", "values": [{"measurement": "GSC frequency / self-renewal (limiting dilution)", "setting": "VTC-034 GSCs", "value": "significant decrease in VTC-001, VTC-034, and VTC-037 GSC frequency"}, {"measurement": "Notch1 protein expression", "setting": "Notch1", "value": "significantly decreased Notch1 expression at the protein level"}]}
